Laboratory results published in the supplement of paper PMC8882468.
Where “and” joins values, the source holds several entries; their conditions need not be identical. Equal entries are not always repeated.

Tests used:
Assay in all cases: CTG-3D luminescence at 96 h relative to day-0 seeding control (ratio to day 0); higher = more growth / less cytotoxicity; PDxO 3D drug screen (set 2), 96 h, CTG-3D normalised to day-0 seeding control.
[1] = system: HCI-001 (organoid from a triple-negative breast cancer xenograft)
[2] = system: HCI-003.E2 (organoid from an ER-positive breast cancer xenograft)
[3] = system: HCI-005.E2 (organoid from a breast cancer xenograft with a HER2-positive history)
[4] = system: HCI-010 (organoid from a breast cancer xenograft)
[5] = system: HCI-012 (organoid from a breast cancer xenograft)
[6] = system: HCI-015 (organoid from a triple-negative breast cancer xenograft)
[7] = system: MDA-MB-231

CC(C)n1nc(-c2ccc3oc(N)nc3c2)c2c(N)ncnc21 [sapanisertib]
CTG-3D luminescence at 96 h
Details | 12.5 pM | 0.00025 µM | 0.005 µM | 0.1 µM | 1 µM | 10 µM | 100 µM | 625 fM
[1], days in culture: 365 | 2.81 | 2.2 | 2.02 | 1.47 | 0.787 | 0.663 | 0.424 | 1.97
[1], days in culture: 397 | 1.78 | 1.58 | 1.37 | 0.91 | 0.823 | 0.77 | 0.471 | 1.56
[1], days in culture: 401 | 1.48 | 1.97 | 1.53 | 0.815 | 0.544 | 0.657 | 0.396 | 1.63
[4], days in culture: 79 | 1.62 | 1.71 | 1.53 | 0.599 | 0.388 | 0.119 | 0.00579 | 1.95
[4], days in culture: 86 | 2.29 | 2.56 | 2.36 | 0.928 | 0.647 | 0.182 | 0.012 | 2.51
[4], days in culture: 102 | 1.31 | 1.4 | 1.07 | 0.401 | 0.241 | 0.0381 | 0.00408 | 1.02
[4], days in culture: 164 | 1.54 | 1.67 | 1.55 | 0.695 | 0.643 | 0.245 | 0.0314 | 1.37
[5], days in culture: 214 | 3 | 1.84 | 1.05 | 1.27 | 0.635 | 0.331 | 0.0967 | 2.11
[5], days in culture: 243 | 1.95 | 2.36 | 1.77 | 1.16 | 0.476 | 0.522 | 0.156 | 3.05
[5], days in culture: 256 | 2.05 | 2.28 | 2.44 | 1.31 | 0.395 | 0.305 | 0.171 | 2.12
[5], days in culture: 284 | 1.65 | 2.83 | 1.59 | 1.13 | 0.451 | 0.248 | 0.147 | 3.7
[6], days in culture: 333 | 1.82 | 1.45 | 1.21 | 0.567 | 0.461 | 0.114 | 0.0973 | 1.56
[6], days in culture: 355 | 2.17 | 1.74 | 1.65 | 1.3 | 0.564 | 0.557 | 0.233 | 1.38
[6], days in culture: 369 | 2.06 | 1.61 | 2.17 | 0.797 | 0.611 | 0.449 | 0.336 | 1.68

CTG-3D luminescence at 96 h
Details | 12.5 pM | 0.00025 µM | 0.005 µM | 0.1 µM | 1 µM | 10 µM | 100 µM | 625 fM
[2] | 2.44 | 2.37 | 2.1 | 0.144 | 0.0411 | 0.0196 | 0.00904 | 2.87
[3] | 1.96 | 2.23 | 2.42 | 1.23 | 0.685 | 0.506 | 0.0873 | 1.98
[7] | 5.39 | 5.2 | 4.98 | – | 2.67 | 1.74 | 0.758 | 5.28

CC(=O)O[C@@]12CO[C@@H]1C[C@H](O)[C@@]1(C)C(=O)[C@H](O)C3=C(C)[C@@H](OC(=O)[C@H](O)[C@@H](NC(=O)OC(C)(C)C)c4ccccc4)C[C@@](O)([C@@H](OC(=O)c4ccccc4)[C@H]21)C3(C)C [docetaxel]
CTG-3D luminescence at 96 h
Details | 12.5 pM | 0.00025 µM | 0.005 µM | 0.1 µM | 1 µM | 10 µM | 100 µM | 625 fM
[1], days in culture: 365 | 1.99 | 1.78 | 1.68 | 1.79 | 1.49 | 1.18 | 1.1 | 1.34
[1], days in culture: 397 | 1.11 | 1.7 | 1.28 | 1.67 | 1.72 | 1.72 | 0.311 | 0.889
[1], days in culture: 401 | 1 | 1.57 | 0.829 | 1.35 | 1.02 | 1.19 | 0.514 | 1.16
[4], days in culture: 79 | 1.26 | 1.41 | 1.14 | 0.967 | 0.815 | 0.987 | 0.000117 | 1.74
[4], days in culture: 86 | 2.16 | 2.35 | 2.01 | 0.907 | 0.734 | 0.847 | 0.00279 | 2.24
[4], days in culture: 102 | 1.2 | 0.987 | 0.747 | 0.491 | 0.519 | 0.375 | 0.00091 | 1.07
[4], days in culture: 164 | 1.68 | 1.45 | 1.1 | 0.611 | 0.719 | 0.646 | 0.00438 | 1.43
[5], days in culture: 214 | 1.03 | 0.8 | 0.461 | 0.578 | 0.404 | 0.777 | 0.105 | 0.817
[5], days in culture: 243 | 1.3 | 1.44 | 0.758 | 0.52 | 0.65 | 0.926 | 0.441 | 1.69
[5], days in culture: 256 | 2.14 | 2.22 | 1.58 | 0.695 | 0.649 | 0.506 | 0.405 | 2.16
[5], days in culture: 284 | 2.14 | 3.21 | 1.16 | 0.569 | 0.537 | 0.49 | 0.0331 | 4.21
[6], days in culture: 333 | 1.1 | 0.869 | 0.428 | 0.469 | 0.526 | 0.304 | 0.0462 | 0.76
[6], days in culture: 355 | 1.2 | 0.928 | 0.736 | 0.737 | 0.975 | 0.684 | 0.105 | 0.757
[6], days in culture: 369 | 1.06 | 0.83 | 0.967 | 0.721 | 0.553 | 0.702 | 0.176 | 1.69

CTG-3D luminescence at 96 h
Details | 12.5 pM | 0.00025 µM | 0.005 µM | 0.1 µM | 1 µM | 10 µM | 100 µM | 625 fM
[2] | 0.748 | 0.702 | 0.684 | 0.627 | 0.599 | 0.261 | 0.0093 | 0.993
[3] | 1.75 | 1.98 | 2.07 | 2.26 | 2.22 | 1.75 | 0.813 | 2.5
[7] | 4.86 and 2.64 | 3.88 and 2.58 | 3.24 and 2.69 | 2.84 and 2.47 | 3.11 and 2.65 | 3.34 and 2.92 | 1.24 and 1.2 | 4.81 and 2.82
